Source: ChEMBL document CHEMBL1201862, “PubChem BioAssay data set” (2004)
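Interpolation was linear, between the two tested concentrations surrounding the appropriate level; five concentrations were tested over 48 hours in 96-well plates. GI50: concentration for 50% inhibition of growth.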 Activity calls are given as the source filed them. No stated cut-off is given here; in the data, active = GI50 up to about 1.1 µM and inactive = higher.

What was measured:
Assay in all cases: NCI anticancer screen, dose series, 48 h
SK-OV-3 = test system: SK-OV-3
NCI-H226 = test system: NCI-H226
K562 = test system: K562
UACC-257 = test system: UACC-257
SN12C = test system: SN12C
IGROV-1 = test system: IGROV-1
HCT-116 = test system: HCT-116
CAKI-1 = test system: CAKI-1
A498 = test system: A498
SF-539 = test system: SF-539
OVCAR-3 = test system: OVCAR-3
SK-MEL-5 = test system: SK-MEL-5
NCI-H23 = test system: NCI-H23
T47D = test system: T47D
HOP-92 = test system: HOP-92
SNB-19 = test system: SNB-19
OVCAR-8 = test system: OVCAR-8
Hs-578T = test system: Hs-578T
A549 = test system: A549
SNB-75 = test system: SNB-75

| SMILES | GI50 (SK-OV-3) | GI50 (NCI-H226) | GI50 (K562) | GI50 (UACC-257) | GI50 (SN12C) | GI50 (IGROV-1) | GI50 (HCT-116) | GI50 (CAKI-1) | GI50 (A498) | GI50 (SF-539) | GI50 (OVCAR-3) | GI50 (SK-MEL-5) | GI50 (NCI-H23) | GI50 (T47D) | GI50 (HOP-92) | GI50 (SNB-19) | GI50 (OVCAR-8) | GI50 (Hs-578T) | GI50 (A549) | GI50 (SNB-75) |
| --- | --- | --- | --- | --- | --- | --- | --- | --- | --- | --- | --- | --- | --- | --- | --- | --- | --- | --- | --- | --- |
| CC1C2(C)OC(=N)C(C#N)(C(c3cccc([N+](=O)[O-])c3)O2)C1(C#N)C#N (stereo not given) | > 100 µM (inactive) | > 100 µM (inactive) | 14.6 µM (inactive) | 19.6 µM (inactive) | 14.9 µM (inactive) | 42.6 µM (inactive) | 18.5 µM (inactive) | 12.1 µM (inactive) | > 100 µM (inactive) | 18.9 µM (inactive) | > 10 µM (inactive) | 8 µM (inactive) | 33.6 µM (inactive) | 13.7 µM (inactive) | 13.6 µM (inactive) | 37.1 µM (inactive) | 29.6 µM (inactive) | 27.1 µM (inactive) | > 100 µM (inactive) | 40.6 µM (inactive) |
| O=C1C=CC(=O)[C@H]2C3C=CC(C4C3C3(Cl)C(Cl)=C(Cl)[C@]4(Cl)C3(Cl)Cl)[C@@H]12 (stereo not given in full) | 14.2 µM (inactive) | 6.47 µM (inactive) | 3.14 µM (inactive) | 2.32 µM (inactive) | 5.58 µM (inactive) | 5.79 µM (inactive) | 3.61 µM (inactive) | 11.5 µM (inactive) | 16 µM (inactive) | 5.28 µM (inactive) | 2.95 µM (inactive) | 3.55 µM (inactive) | 12.6 µM (inactive) | 5.48 µM (inactive) | 2.18 µM (inactive) | 5.62 µM (inactive) | 8.47 µM (inactive) | 10.9 µM (inactive) | 4.03 µM (inactive) | 12.2 µM (inactive) |
| Cc1cccc(NC(=O)/C=C/c2ccc([N+](=O)[O-])cc2)c1 | > 46.5 µM (inactive) | > 46.7 µM (inactive) | > 29.4 µM (inactive) | > 39 µM (inactive) | > 41.2 µM (inactive) | 18.5 µM (inactive) | > 36.9 µM (inactive) | > 39.3 µM (inactive) | > 100 µM (inactive) | > 29.8 µM (inactive) | 12.5 µM (inactive) | > 36.4 µM (inactive) | 16.4 µM (inactive) | > 37.8 µM (inactive) | 15.8 µM (inactive) | > 33.2 µM (inactive) | > 37.2 µM (inactive) | 48.1 µM (inactive) | > 41.7 µM (inactive) | 30.1 µM (inactive) |
| CCCC(=O)OC[n+]1ccc(-c2c(COC(=O)NC(C)C)c(COC(=O)NC(C)C)c3n2CCC3)cc1 | > 100 µM (inactive) | > 100 µM (inactive) | > 100 µM (inactive) | > 100 µM (inactive) | > 100 µM (inactive) | > 100 µM (inactive) | > 100 µM (inactive) | 21.8 µM (inactive) | 39.7 µM (inactive) | 28.1 µM (inactive) | > 100 µM (inactive) | > 100 µM (inactive) | > 100 µM (inactive) | > 100 µM (inactive) | > 100 µM (inactive) | > 100 µM (inactive) | > 100 µM (inactive) | > 100 µM (inactive) | > 100 µM (inactive) | 87.3 µM (inactive) |
| Cc1ccc(S(=O)(=O)n2cc(-c3cnc(N)c(Br)n3)c3ccccc32)cc1 | 4.26 µM (inactive) | 31.2 µM (inactive) | 0.841 µM (active) | 12.9 µM (inactive) | 1.31 µM (inactive) | 1.3 µM (inactive) | 0.83 µM (active) | 3.32 µM (inactive) | 2.68 µM (inactive) | 1.15 µM (inactive) | 1.02 µM (active) | 2.91 µM (inactive) | 1.56 µM (inactive) | 6.76 µM (inactive) | 3.94 µM (inactive) | 1.01 µM (active) | 4.06 µM (inactive) | 0.863 µM (active) | 2.22 µM (inactive) | 1.42 µM (inactive) |
| CC1=C(C)Cc2c(O)ccc(O)c2C1 | 76.2 µM (inactive) | 17.4 µM (inactive) | 18.8 µM (inactive) | 18.2 µM (inactive) | 21.8 µM (inactive) |  | 15.9 µM (inactive) | 18.2 µM (inactive) | 83.9 µM (inactive) | 20 µM (inactive) | 20.4 µM (inactive) | 14.6 µM (inactive) | 27.9 µM (inactive) | 18.5 µM (inactive) | 19.7 µM (inactive) | > 100 µM (inactive) | 16.1 µM (inactive) | 17.7 µM (inactive) | 18.7 µM (inactive) | 16.2 µM (inactive) |
| C#CCn1ncc2c(SCc3ccccc3)ncnc21 | > 100 µM (inactive) | > 100 µM (inactive) | 52.7 µM (inactive) | 70 µM (inactive) | > 100 µM (inactive) | > 100 µM (inactive) | 62.8 µM (inactive) | 57.8 µM (inactive) | > 100 µM (inactive) | > 100 µM (inactive) | > 100 µM (inactive) | 36.1 µM (inactive) | > 100 µM (inactive) | 3.05 µM (inactive) | > 100 µM (inactive) | > 100 µM (inactive) | > 100 µM (inactive) | > 100 µM (inactive) | > 100 µM (inactive) | 40.8 µM (inactive) |
| C=C1CCCC(C)(C)C1CCC1(C)CCC(C(C)C(=O)OC)OO1 (stereo not given) | 4.4 µM (inactive) | 6.18 µM (inactive) | 8.89 µM (inactive) | > 20.2 µM (inactive) | 3.77 µM (inactive) | 0.63 µM (active) | 8.45 µM (inactive) | 0.383 µM (active) | 5.87 µM (inactive) | 6.3 µM (inactive) | 21.8 µM (inactive) | 5.19 µM (inactive) | 3.78 µM (inactive) | 4.32 µM (inactive) | 0.764 µM (active) | 9.08 µM (inactive) | 6.62 µM (inactive) | 5.57 µM (inactive) | 1.28 µM (inactive) | 3.15 µM (inactive) |
| CC(C)C(=O)NCC[C@@H](CNC(=O)OC(C)(C)C)NC(=O)OC(C)(C)C | > 100 µM (inactive) | > 100 µM (inactive) | > 100 µM (inactive) | > 100 µM (inactive) | > 100 µM (inactive) | > 100 µM (inactive) | > 100 µM (inactive) | > 100 µM (inactive) | > 100 µM (inactive) | > 100 µM (inactive) | > 100 µM (inactive) | > 100 µM (inactive) | > 100 µM (inactive) | > 100 µM (inactive) | > 100 µM (inactive) | > 100 µM (inactive) | > 100 µM (inactive) | > 100 µM (inactive) | > 100 µM (inactive) | > 100 µM (inactive) |
| O=C1Nc2ccc(Br)cc2/C1=C/C(=O)c1ccccc1 | 17.6 µM (inactive) | 13.9 µM (inactive) | 5.57 µM (inactive) | 15.1 µM (inactive) | 4.2 µM (inactive) | 3.67 µM (inactive) | 4.22 µM (inactive) | 7.74 µM (inactive) | 18.6 µM (inactive) | 6.08 µM (inactive) | 6.82 µM (inactive) | 16.7 µM (inactive) | 10.2 µM (inactive) | 14.7 µM (inactive) | 4.13 µM (inactive) | 19.4 µM (inactive) | 2.1 µM (inactive) | 17.7 µM (inactive) | 16.1 µM (inactive) | 17.3 µM (inactive) |
| O=c1c2cc(-c3ccccc3)sc2nc2n1N=C(c1ccc(Cl)cc1)CS2 | > 100 µM (inactive) | > 100 µM (inactive) | > 100 µM (inactive) | > 100 µM (inactive) | > 100 µM (inactive) | > 100 µM (inactive) | > 100 µM (inactive) | > 100 µM (inactive) | > 100 µM (inactive) | > 100 µM (inactive) | > 100 µM (inactive) | > 100 µM (inactive) | > 100 µM (inactive) | 57.5 µM (inactive) | > 100 µM (inactive) |  | > 100 µM (inactive) | > 100 µM (inactive) | > 100 µM (inactive) | > 100 µM (inactive) |
| COc1ccc(C2SCC(=O)N2c2ccc(-c3ccc(-n4c(-c5ccccc5)nc5ccccc5c4=O)cc3)cc2)cc1OC (stereo not given) | 40.3 µM (inactive) | 52.7 µM (inactive) | 23.3 µM (inactive) | 61.5 µM (inactive) | > 100 µM (inactive) | 37.7 µM (inactive) | 67.8 µM (inactive) | 88.5 µM (inactive) | > 100 µM (inactive) | 30.5 µM (inactive) | 26.5 µM (inactive) |  | > 100 µM (inactive) | 22.4 µM (inactive) | > 100 µM (inactive) | 84.5 µM (inactive) | 27.5 µM (inactive) | 69.5 µM (inactive) | 27.9 µM (inactive) | 64.1 µM (inactive) |
| O=C(O)c1cc(N(Cc2ccccc2O)Cc2cc(O)ccc2O)ccc1O [LAVENDUSTIN A] | > 100 µM (inactive) | > 100 µM (inactive) | > 100 µM (inactive) | > 100 µM (inactive) | > 100 µM (inactive) | > 100 µM (inactive) | > 100 µM (inactive) |  | > 100 µM (inactive) | > 100 µM (inactive) | > 100 µM (inactive) | > 100 µM (inactive) | > 100 µM (inactive) | > 100 µM (inactive) | > 100 µM (inactive) | > 100 µM (inactive) | > 100 µM (inactive) | 19.8 µM (inactive) | > 100 µM (inactive) | > 10 µM (inactive) |
| O=C(CSc1n[nH]c(=O)[nH]c1=O)NNC(=O)c1cccc2nc3ccccc3nc12 | > 100 µM (inactive) | 90.4 µM (inactive) | > 100 µM (inactive) | 58.7 µM (inactive) | 94.8 µM (inactive) | > 100 µM (inactive) | > 100 µM (inactive) | > 100 µM (inactive) | > 100 µM (inactive) | 71.6 µM (inactive) | > 100 µM (inactive) | 22 µM (inactive) | 35.9 µM (inactive) | > 100 µM (inactive) | > 100 µM (inactive) | 64.1 µM (inactive) | > 100 µM (inactive) | 40.4 µM (inactive) | 39.4 µM (inactive) |  |
